{
  "source": "ChEMBL document CHEMBL5154917",
  "about": "(J Med Chem, 2022)",
  "key": {"[1]": {"tested_on": "HT-29", "experiment": "Antiproliferative activity against human HT-29 cells assessed as cell growth inhibition incubated for 72 hrs by CCK-8 assay", "conditions": "HT-29, 72 h"}, "[2]": {"tested_on": "MKN-1", "experiment": "Antiproliferative activity against human MKN-1 cells assessed as cell growth inhibition incubated for 72 hrs by CCK-8 assay", "conditions": "MKN-1, 72 h"}, "[3]": {"experiment": "Toxicity in CB17-SCID mouse xenografted with human MKN-1 cells assessed as mortality at 25 mg/kg, ip qd for 18 consecutive days", "type": "organism-based", "conditions": "in vivo, 432 h, time 18 day"}, "[4]": {"molecular_target": "T1, Serine/threonine-protein kinase RIO1 (Homo sapiens) (UniProt Q9BRS2)", "T1 sequence (whole entry)": "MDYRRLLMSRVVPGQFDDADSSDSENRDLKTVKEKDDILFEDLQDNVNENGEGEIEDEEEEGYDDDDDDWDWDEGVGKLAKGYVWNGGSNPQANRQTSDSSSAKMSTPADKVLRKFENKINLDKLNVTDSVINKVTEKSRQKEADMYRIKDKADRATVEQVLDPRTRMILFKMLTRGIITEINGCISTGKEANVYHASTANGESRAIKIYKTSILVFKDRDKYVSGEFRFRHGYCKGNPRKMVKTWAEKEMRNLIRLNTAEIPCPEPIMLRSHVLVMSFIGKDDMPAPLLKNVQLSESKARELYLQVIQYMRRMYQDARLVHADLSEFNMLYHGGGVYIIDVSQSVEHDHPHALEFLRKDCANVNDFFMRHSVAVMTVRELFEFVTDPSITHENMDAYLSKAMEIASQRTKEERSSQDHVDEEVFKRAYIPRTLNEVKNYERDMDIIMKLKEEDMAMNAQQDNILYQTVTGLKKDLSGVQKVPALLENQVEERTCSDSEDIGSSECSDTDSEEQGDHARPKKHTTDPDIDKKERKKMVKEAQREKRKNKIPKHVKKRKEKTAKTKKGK", "experiment": "Binding affinity to RIOK1 in human MKN-1 cells assessed as negative shift in melting temperature at 5 uM incubated for 3 hrs followed by heat treatment at 52 to 62 degC for 3 mins by CETSA", "type": "cell-based", "conditions": "time 183.0 min"}, "[5]": {"molecular_target": "T1, Serine/threonine-protein kinase RIO1 (Homo sapiens)", "experiment": "Binding affinity to wild-type human full length RIOK1 (M1 to K568 residues) expressed in bacterial expression system assessed as residual activity at 1 uM by KINOMEscan assay relative to control"}, "[6]": {"experiment": "Toxicity in CB17-SCID mouse xenografted with human MKN-1 cells assessed as side effects at 25 mg/kg, ip qd for 18 consecutive days", "type": "organism-based", "conditions": "in vivo, 432 h, time 18 day"}, "[7]": {"experiment": "Solubility of compound in organic solvents", "type": "physicochemical"}, "[8]": {"tested_on": "MKN-1", "experiment": "Antitumor activity against human MKN-1 cells xenografted in CB17-SCID mouse assessed as tumor growth inhibition at 25 mg/kg, ip qd for 18 consecutive days and measured once every 2 days relative to control", "type": "functional", "conditions": "MKN-1, 432 h, time 18 day, read-out: TGI"}, "[9]": {"molecular_target": "T2, Serine/threonine-protein kinase RIO3 (Homo sapiens) (UniProt O14730)", "T2 sequence (whole entry)": "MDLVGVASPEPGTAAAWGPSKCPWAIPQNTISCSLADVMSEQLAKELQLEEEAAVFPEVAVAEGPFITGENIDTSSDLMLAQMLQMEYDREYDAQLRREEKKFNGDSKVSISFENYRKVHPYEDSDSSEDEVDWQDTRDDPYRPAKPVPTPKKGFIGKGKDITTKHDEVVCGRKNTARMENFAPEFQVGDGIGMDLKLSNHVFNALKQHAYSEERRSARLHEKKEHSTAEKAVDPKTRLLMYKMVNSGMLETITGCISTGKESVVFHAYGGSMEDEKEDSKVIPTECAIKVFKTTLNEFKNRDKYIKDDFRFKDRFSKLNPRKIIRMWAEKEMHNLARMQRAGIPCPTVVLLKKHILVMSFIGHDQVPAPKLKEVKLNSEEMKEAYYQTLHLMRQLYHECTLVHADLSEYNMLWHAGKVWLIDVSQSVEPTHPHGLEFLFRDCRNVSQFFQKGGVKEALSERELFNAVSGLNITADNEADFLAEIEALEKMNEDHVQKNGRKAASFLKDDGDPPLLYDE", "experiment": "Binding affinity to RIOK3 in human MKN-1 cells assessed as negative shift in melting temperature at 5 uM incubated for 3 hrs followed by heat treatment at 52 to 62 degC for 3 mins by CETSA", "type": "cell-based", "conditions": "time 183.0 min"}, "[10]": {"molecular_target": "T2, Serine/threonine-protein kinase RIO3 (Homo sapiens)", "experiment": "Binding affinity to wild-type human full length RIOK3 (M1 to E519 residues) expressed in bacterial expression system assessed as residual activity at 1 uM by KINOMEscan assay relative to control"}, "[11]": {"organism": "Homo sapiens", "experiment": "Binding affinity to human partial length FLT3 ITD D835V mutant expressed in mammalian expression system assessed as residual activity at 1 uM by KINOMEscan assay relative to control"}, "[12]": {"tested_on": "T3, Receptor-type tyrosine-protein kinase FLT3 (Homo sapiens), P36888 [D835V]", "T3 sequence (whole entry)": "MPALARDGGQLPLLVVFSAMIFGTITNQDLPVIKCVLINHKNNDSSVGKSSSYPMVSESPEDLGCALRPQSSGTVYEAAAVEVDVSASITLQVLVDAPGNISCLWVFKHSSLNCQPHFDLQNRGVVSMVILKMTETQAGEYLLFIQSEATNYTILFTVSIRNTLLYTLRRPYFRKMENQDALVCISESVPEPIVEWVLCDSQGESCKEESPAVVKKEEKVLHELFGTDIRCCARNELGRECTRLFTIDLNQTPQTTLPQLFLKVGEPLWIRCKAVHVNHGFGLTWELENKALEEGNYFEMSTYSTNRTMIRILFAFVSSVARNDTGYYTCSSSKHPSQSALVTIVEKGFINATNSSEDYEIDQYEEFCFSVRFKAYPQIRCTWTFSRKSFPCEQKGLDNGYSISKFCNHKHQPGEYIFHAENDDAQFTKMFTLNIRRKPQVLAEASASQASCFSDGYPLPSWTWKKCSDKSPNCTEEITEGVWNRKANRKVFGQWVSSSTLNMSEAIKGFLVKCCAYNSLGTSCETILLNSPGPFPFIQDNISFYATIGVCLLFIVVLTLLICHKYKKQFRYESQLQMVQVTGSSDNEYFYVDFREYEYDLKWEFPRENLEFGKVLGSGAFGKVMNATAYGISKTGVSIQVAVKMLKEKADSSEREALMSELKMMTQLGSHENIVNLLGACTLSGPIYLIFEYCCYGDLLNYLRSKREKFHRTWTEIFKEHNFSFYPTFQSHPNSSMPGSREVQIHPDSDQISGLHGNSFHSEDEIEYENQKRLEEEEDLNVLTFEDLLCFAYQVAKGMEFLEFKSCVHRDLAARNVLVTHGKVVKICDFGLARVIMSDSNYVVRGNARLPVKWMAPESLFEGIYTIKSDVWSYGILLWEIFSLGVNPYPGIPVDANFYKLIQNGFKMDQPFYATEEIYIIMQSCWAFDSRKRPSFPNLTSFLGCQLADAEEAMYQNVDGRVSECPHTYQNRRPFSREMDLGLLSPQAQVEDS", "experiment": "Binding affinity to human partial length FLT3 D835V mutant (V592 to Y969 residues) expressed in mammalian expression system assessed as residual activity at 1 uM by KINOMEscan assay relative to control"}, "[13]": {"experiment": "Cmax in Sprague-Dawley rat administered orally", "type": "ADME", "set-up": "route po", "conditions": "in vivo, po"}, "[14]": {"experiment": "Oral bioavailability in Sprague-Dawley rat", "type": "ADME, organism-based", "conditions": "in vivo"}, "[15]": {"experiment": "Aqueous solubility of the compound", "type": "physicochemical", "conditions": "buffer"}, "[16]": {"organism": "Homo sapiens", "experiment": "Binding affinity to human partial length FLT3 ITD F691L mutant expressed in mammalian expression system assessed as residual activity at 1 uM by KINOMEscan assay relative to control"}},
  "note": "Calls of active or inactive are those of the source. The rule behind the calls is not given here.",
  "data": [
    {"smiles": "Cc1ccnc(NC(=O)Cc2ccc3ccccc3c2)c1", "values": [
      {"measurement": "IC50", "setting": "[1]", "value": "> 8", "unit": "µM"},
      {"measurement": "IC50", "setting": "[2]", "value": "> 8", "unit": "µM"}
    ]},
    {"smiles": "COc1ccc(-c2ccc3[nH]c(=O)c4nnn(-c5ccccc5)c4c3c2)cn1", "values": [
      {"measurement": "IC50", "setting": "[1]", "value": "> 8", "unit": "µM"},
      {"measurement": "IC50", "setting": "[2]", "value": "> 8", "unit": "µM"}
    ]},
    {"smiles": "COc1ccc(-c2ccc3[nH]c(=O)c4nnn(-c5ccc(N6CCNCC6)c(C(F)(F)F)c5)c4c3c2)cn1", "values": [
      {"measurement": "IC50", "setting": "[1]", "value": 0.38, "unit": "µM"},
      {"measurement": "Activity", "setting": "[3]", "value": "Non-Toxic"},
      {"measurement": "Activity", "setting": "[4]", "value": "Active"},
      {"measurement": "Activity", "setting": "[5]", "value": 100, "unit": "%"},
      {"measurement": "Activity", "setting": "[6]", "value": "Non-Toxic"},
      {"measurement": "solubility", "setting": "[7]", "value": "Insoluble"},
      {"measurement": "IC50", "setting": "[2]", "value": 0.61, "unit": "µM"},
      {"measurement": "inhibition in vivo at 25 mg/kg", "setting": "[8]", "value": 30.9, "unit": "%"},
      {"measurement": "Activity", "setting": "[9]", "value": "Active"},
      {"measurement": "Activity", "setting": "[10]", "value": 87, "unit": "%"},
      {"measurement": "Activity", "setting": "[11]", "value": 4, "unit": "%"},
      {"measurement": "Activity", "setting": "[12]", "value": 28, "unit": "%"},
      {"measurement": "Cmax", "setting": "[13]", "value": 13, "unit": "ng/mL"},
      {"measurement": "bioavailability", "setting": "[14]", "value": 3.06, "unit": "%"},
      {"measurement": "solubility", "setting": "[15]", "value": "Insoluble"},
      {"measurement": "Activity", "setting": "[16]", "value": 3.6, "unit": "%"}
    ]}
  ]
}
